Measured values published in BindingDB's records for doi:10.1021/jm970079r (Virginia Polytechnic Institute and State University, 1997).

Tests used:
[1] = biological target: T1, Amine oxidase [flavin-containing] A (Homo sapiens, UniProt P21397); experiment: Tested for inhibition- binding affinity against monoamine oxidase A catalyzed oxidation.; settings: read-out: kon (M-1-s-1)
T1 sequence (P21397 whole entry): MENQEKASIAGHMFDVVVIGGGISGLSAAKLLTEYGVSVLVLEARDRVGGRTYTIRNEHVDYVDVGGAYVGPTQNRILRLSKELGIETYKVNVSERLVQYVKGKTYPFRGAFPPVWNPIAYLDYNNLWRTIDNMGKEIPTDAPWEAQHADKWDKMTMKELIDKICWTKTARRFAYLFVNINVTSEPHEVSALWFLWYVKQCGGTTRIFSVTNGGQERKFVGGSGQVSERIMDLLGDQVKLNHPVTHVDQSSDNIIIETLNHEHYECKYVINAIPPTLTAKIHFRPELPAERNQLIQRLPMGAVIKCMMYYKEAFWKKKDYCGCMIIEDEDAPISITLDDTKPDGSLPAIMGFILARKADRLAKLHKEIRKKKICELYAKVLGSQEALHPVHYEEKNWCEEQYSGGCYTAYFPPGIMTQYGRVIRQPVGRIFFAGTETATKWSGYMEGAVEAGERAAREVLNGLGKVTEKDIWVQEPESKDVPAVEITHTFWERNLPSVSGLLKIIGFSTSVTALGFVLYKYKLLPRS

[2] = biological target: T2, Amine oxidase [flavin-containing] B (Bos taurus, UniProt P56560); experiment: Tested for inhibition- binding affinity against monoamine oxidase B catalyzed oxidation.; settings: read-out: kon (M-1-s-1)
T2 sequence (P56560 whole entry): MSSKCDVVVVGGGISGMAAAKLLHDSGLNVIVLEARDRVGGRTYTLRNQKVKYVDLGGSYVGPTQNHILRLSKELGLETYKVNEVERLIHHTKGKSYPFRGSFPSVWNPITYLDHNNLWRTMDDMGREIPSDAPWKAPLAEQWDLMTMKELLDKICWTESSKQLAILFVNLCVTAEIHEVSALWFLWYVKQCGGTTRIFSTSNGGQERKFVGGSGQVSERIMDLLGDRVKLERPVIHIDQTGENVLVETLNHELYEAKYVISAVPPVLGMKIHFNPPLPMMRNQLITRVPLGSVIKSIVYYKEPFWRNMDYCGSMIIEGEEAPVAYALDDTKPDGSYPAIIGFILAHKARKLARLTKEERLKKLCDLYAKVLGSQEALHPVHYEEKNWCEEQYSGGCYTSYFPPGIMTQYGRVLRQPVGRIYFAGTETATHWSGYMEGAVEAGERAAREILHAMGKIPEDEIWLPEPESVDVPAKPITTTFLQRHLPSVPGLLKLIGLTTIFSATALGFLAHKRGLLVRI

Row | SMILES | kon [1] | kon [2]
1 | C1=C(c2ccccc2-c2ccccc2)CCN(C2CC2)C1 | 220000 M⁻¹ s⁻¹ | 
2 | C1=C(c2ccccc2)CCN(C2CC2)C1 | 50000 M⁻¹ s⁻¹ | 180000 M⁻¹ s⁻¹
3 | C1=C(c2ccc3ccccc3c2)CCN(C2CC2)C1 | 380000 M⁻¹ s⁻¹ | 150000 M⁻¹ s⁻¹
4 | C1=C(c2cccc(-c3ccccc3)c2)CCN(C2CC2)C1 | 680000 M⁻¹ s⁻¹ | 440000 M⁻¹ s⁻¹
5 | C1=C(c2cccc3ccccc23)CCN(C2CC2)C1 | 400000 M⁻¹ s⁻¹ | 110000 M⁻¹ s⁻¹
